Results as given in US20120295292A1, “Detecting Protein Arginine Deiminase (PAD) Activity in Human Tissues and Sera” (University of South Carolina, priority 2011, published 2012).

Test system: PAD
Assay: PAD activity in serum of mice with DSS-induced colitis (BAEE substrate, COLDER citrulline detection)
Format: in vivo
Conditions: serum of mice given 2% DSS for 1 week; Cl-amidine treated vs no treatment; p>0.005 as printed; FIG. 2A
Procedure: A mouse model of colitis was used to develop a method for detecting disease incidence and disease severity by measuring the PAD activity present in serum. In this model, mice were […] or orally administered 2% dextran sulfate sodium (DSS) for 1 week to induce colitis. This model induced moderate to severe colon inflammation, shortening of the colon, and ulcer formation. The efficacy was tested of the PAD inhibitor, Cl-amidine, to determine if PAD activity was diminished in a group of Cl-amidine treated mice versus a group receiving no treatment with the PAD inhibitor. As a control, mice were given water without 2% DSS.
To determine PAD activity levels within the mice, serum samples were collected, then resuspended in Homogenization Buffer (50 mM HEPES pH 7.6, 10% glycerol, 1% NP-40, 1 mM PMSF, and 2 mM DTT) and homogenized using a glass dounce homogenizer. Serum samples were then centrifuged at 10,600 g for 20 min to remove cellular debris. The protein concentration was measured using the Lowry assay. PAD activity was determined by incubating serum samples in a Reaction Buffer (100 mM 4-(2-hydroxyethyl)-1-piperazineethanesulfonic acid (“HEPES”) pH 7.6, 500 mM NaCl, […] (“DTT”), 100 mM CaCl2, and 100 mM N-benzoyl-L-arginine ethyl ester (“BAEE”)) as substrate for the PAD. Incubation was carried out for 2 h at 37° C. in duplicate before freezing in liquid nitrogen. […]

For `NC(=O)[C@H](CCCN=C(N)CCl)NC(=O)c1ccccc1` [Cl-amidine], the “decrease in PAD activity as compared to the no treatment mice” value was “greater than 2.3 fold”.
